Results taken from ChEMBL document CHEMBL1201862, “PubChem BioAssay data set” (2004).
Active and inactive are the calls of the source. No rule for the calls is given here.

Target: Voltage-dependent T-type calcium channel subunit alpha-1H (Homo sapiens, UniProt O95180)
Experiment: Cav3.2 T-type channel inhibitors, cell-based, synthetic library set 1, calcium flux (AID 493022)
Assay type: functional

Chain of Voltage-dependent T-type calcium channel subunit alpha-1H (O95180 whole entry): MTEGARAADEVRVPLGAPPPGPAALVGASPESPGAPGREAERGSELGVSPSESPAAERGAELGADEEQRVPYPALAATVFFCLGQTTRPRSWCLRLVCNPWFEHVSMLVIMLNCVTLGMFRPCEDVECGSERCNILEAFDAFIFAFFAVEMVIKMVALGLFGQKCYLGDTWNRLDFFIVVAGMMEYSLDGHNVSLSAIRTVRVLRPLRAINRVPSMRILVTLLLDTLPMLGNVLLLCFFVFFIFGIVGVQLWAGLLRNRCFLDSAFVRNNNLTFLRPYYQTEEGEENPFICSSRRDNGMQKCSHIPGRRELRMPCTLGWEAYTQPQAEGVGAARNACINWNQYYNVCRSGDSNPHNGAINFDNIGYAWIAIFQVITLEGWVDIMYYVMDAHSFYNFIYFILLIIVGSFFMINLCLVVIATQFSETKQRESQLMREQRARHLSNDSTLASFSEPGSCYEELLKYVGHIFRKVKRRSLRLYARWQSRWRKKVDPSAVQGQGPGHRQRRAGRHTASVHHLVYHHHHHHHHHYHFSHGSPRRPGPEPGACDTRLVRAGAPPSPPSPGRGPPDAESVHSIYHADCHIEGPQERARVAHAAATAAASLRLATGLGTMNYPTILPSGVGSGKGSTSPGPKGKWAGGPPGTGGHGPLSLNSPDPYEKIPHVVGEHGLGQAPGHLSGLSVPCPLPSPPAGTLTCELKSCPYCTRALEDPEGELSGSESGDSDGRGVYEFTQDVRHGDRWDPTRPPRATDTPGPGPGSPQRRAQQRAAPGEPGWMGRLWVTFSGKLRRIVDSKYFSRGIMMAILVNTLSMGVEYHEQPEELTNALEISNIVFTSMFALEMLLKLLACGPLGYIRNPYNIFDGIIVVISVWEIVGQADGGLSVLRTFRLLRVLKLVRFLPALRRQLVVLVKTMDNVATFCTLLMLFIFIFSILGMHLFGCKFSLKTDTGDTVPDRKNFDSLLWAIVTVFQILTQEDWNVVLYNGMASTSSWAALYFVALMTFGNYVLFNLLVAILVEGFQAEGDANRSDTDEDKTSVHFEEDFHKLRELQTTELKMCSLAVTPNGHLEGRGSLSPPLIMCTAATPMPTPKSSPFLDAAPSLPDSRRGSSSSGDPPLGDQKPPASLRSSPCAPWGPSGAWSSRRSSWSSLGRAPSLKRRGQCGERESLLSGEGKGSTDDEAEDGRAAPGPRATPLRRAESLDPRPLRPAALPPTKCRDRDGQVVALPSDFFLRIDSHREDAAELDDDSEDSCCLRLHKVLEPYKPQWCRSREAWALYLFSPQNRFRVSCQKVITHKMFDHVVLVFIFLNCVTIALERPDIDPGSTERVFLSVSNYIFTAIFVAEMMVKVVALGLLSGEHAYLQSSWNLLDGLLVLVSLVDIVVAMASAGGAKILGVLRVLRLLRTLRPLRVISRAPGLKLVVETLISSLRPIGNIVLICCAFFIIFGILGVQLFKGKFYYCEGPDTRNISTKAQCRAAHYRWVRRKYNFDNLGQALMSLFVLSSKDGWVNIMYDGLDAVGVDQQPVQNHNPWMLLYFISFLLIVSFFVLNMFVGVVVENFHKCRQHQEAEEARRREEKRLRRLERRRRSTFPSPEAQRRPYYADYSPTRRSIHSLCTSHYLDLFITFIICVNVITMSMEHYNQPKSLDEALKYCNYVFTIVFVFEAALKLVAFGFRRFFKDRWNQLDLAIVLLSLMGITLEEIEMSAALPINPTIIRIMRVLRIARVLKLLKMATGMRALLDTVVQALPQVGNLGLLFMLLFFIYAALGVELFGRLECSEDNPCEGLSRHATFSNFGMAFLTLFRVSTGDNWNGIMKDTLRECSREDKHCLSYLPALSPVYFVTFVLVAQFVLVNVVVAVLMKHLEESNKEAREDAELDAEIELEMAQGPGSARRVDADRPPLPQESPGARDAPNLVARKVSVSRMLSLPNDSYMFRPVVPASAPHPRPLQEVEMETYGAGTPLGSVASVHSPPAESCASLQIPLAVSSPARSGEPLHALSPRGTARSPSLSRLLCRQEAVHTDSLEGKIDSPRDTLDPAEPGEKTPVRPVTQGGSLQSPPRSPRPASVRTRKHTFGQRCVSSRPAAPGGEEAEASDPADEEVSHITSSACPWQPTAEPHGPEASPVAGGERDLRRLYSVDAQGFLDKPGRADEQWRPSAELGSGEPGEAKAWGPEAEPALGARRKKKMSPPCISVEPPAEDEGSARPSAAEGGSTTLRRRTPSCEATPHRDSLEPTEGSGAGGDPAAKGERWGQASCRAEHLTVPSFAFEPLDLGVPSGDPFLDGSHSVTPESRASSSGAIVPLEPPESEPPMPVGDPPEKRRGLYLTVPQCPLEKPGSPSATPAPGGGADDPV

EC50: 10 µM (active)
SMILES: O=C(COc1ccccc1F)Nc1nnc(-c2ccc(F)cc2)o1
